# Measurements published in paper PMC7034072, “Discovery of small molecule inhibitors of Leishmania braziliensis Hsp90 chaperone” (Journal of Enzyme Inhibition and Medicinal Chemistry, 2020).
# Read-outs that look alike come from different tables or passages of the source.
# Experiments:
# [1] = tested on: LbHsp90 and LbHsp90N recombinant proteins; assay: Differential scanning fluorimetry (thermal shift assay); format: binding, L. braziliensis; settings: DSF; for Thermal shift: inclusion criterion Tm variation greater or equal to ± 2 °C in LbHsp90 or LbHsp90N, Yes/No
# Procedure: The interaction of Hsp90 proteins with different compounds was monitored through the melting temperature (Tm) of each protein in the presence of a fixed concentration of the target compound by differential scanning fluorimetry (DSF) also referred as thermal shift assay. A final concentration of 10 µM of dimeric LbHsp90 and 20 µM of monomeric LbHsp90N in 40 mM Hepes buffer (pH 7.5) containing 100 mM KCl were used. The DMSO concentration in each sample was fixed at 2.5% (v/v). Prior to the readings, the samples were incubated for 30 min on ice. The fluorophore Sypro Orange (Life Technologies) was used as fluorescent probe. The experiments were performed at a thermocycler CFX96 Touch Real Time PCR Detection System (BioRad) and the data were analysed using the CFX Manager software (BioRad). As positive controls, 100 µM of GA and Radicicol (RDC) were used.
# [2] = tested on: promastigote form of L. braziliensis; assay: Cell viability assay (MTT/PMS), single concentration; format: cell-based; settings: L. braziliensis promastigotes, 200 μM/well; for Cell viability: 72 h, MTT/PMS, Yes = leishmanicidal activity; for reduced cell viability: after 72 h
# Procedure: The leishmanicidal activity of the compounds was tested in vitro against the promastigote form of L. braziliensis applying 200 μM/well, (with a total of 0.5% DMSO) into 90 μL of culture. The concentration of L. braziliensis (MHOM/BR/1973/M2269) was adjusted to 10^7 cells/mL. Amphotericin (100 μM/well) was used as positive control, and 0.5% DMSO as negative control.
# The plates were incubated at room temperature (RT) for 72 h. After this period, the viability of the promastigotes was verified via MTT (3–(4, 5-Dimethylthiazol-2-yl)-2, 5-Diphenyltetrazolium Bromide) colorimetric assay. MTT/PMS 11.1 μL/well solution (MTT = 5 mg/mL; Phenazine methosulfate-PMS = 0.22 mg/mL) was added, and the plate was incubated at RT for 4 h, at 150 RPM, protected from light. Formazan crystals were then solubilised by adding 100 μL/well of a solubilisation solution containing 7% SDS, 10 mM HCl and 30% DMSO. The mixture was incubated at RT for 90 min at 150 RPM protected from light. Wells containing the medium and the compounds or DMSO without MTT were used as blank controls. The absorbance was quantified in a plate reader (Biotek Synergy HT) at 570 nm.
# The cell viability percentages were calculated by the following equation: (1) Cell viability %= AT−AB/AU−AB ×100 where AT was an averaged absorbance from treated samples, AB blank absorbance and AU was an averaged absorbance from negative control.
# [3] = tested on: promastigote forms of L. braziliensis; assay: In vitro IC50 determination (leishmanicidal activity, MTT/PMS); format: cell-based; settings: promastigotes, 72 h, RT
# Procedure: Amphotericin 100 μM/well and 0.5% DMSO were used as positive and negative control, respectively. The plates were incubated at RT for 72 h. After this, the viability of the promastigotes was verified by MTT/PMS colorimetric assay, as described above. In vitro leishmanicidal activity, expressed as IC50, was determined using GraphPad Prism 5 software according to the following equation: (2) y= Amin + Amax−Amin/1+10^logIC50 −x*Hillslope where Amin and Amax are, respectively, the minimum and maximum activities obtained, x is the ligand concentration and Hill Slope is the parameter that describes the steepness of the curve.
# The selectivity index parameter was obtained by the ratio of compound IC50 against mammalian cells and compound IC50 against promastigote cells.
# [4] = tested on: Balb-c 3T3 clone A31 mouse fibroblasts; assay: Cytotoxic assay (MTT); format: cell-based; settings: Balb-c 3T3 mouse fibroblasts, 72 h, 37 °C
# Procedure: Compounds cytotoxicity was evaluated in 100 μL of Balb-c 3T3 cone A31 mouse fibroblasts (10^5 cells/mL) into a 96-well plate, incubated for 24 h at 37 °C to become adhered. After this period, the medium was washed and 100 μL of each compound was added to the culture medium (concentration ranging from 1 to 200 μM/well, with a total of 0.5% DMSO) in quadruplicate. Rapamycin was used as a positive control, and 0.5% DMSO was used as negative control. The plates were incubated for 72 h at 37 °C. After this, the viability of Balb-c 3T3 cells was evaluated by MTT colorimetric assay, as described previously.
# [5] = target: T1, LbHsp90 (Leishmania braziliensis, UniProt A4HL70); assay: Tryptophan fluorescence quenching interaction assay; format: binding; settings: full-length, tryptophan fluorescence quenching; read-out: KDapp LbHsp90
# Procedure: (§1) Two µM of protein in 40 mM Hepes buffer (pH 7.5), 100 mM KCl, was incubated for 30 min on ice with increasing concentrations of the compounds diluted in DMSO. […] The samples were excited at 280 nm and the emission was collected in the 300–400 nm range, in a 1.0 × 0.2 cm optical path cuvette, on an F-4500 Fluorescence Spectrophotometer (Hitachi). The fluorescence quenching was analysed at the maximum emission wavelength in the absence of ligand. The determination of the apparent dissociation constant (KDapp) was performed by fitting the fluorescence values obtained for each compound concentration according to a dose-response model through the Equation (3): (3) y = Fmin + (Fmax−Fmin)/(1+10^(logKD− [ligand])) where Fmin and Fmax are the minimum and maximum fluorescence intensity and [ligand] is the compound concentration used in the assay, according to the GraphPad Prism 5 software. The fluorescence intensities were corrected by inner filter effects as previously described.
# [6] = target: T2, hHsp90β (Homo sapiens, UniProt P08238); assay: as above; format: binding; settings: full-length, tryptophan fluorescence quenching; read-out: KDapp hHsp90β
# T2 construct: made in house; host or cells: Escherichia coli BL21(DE3)
# Procedure: as §1
# [7] = target: T3, hHsp90βN (Homo sapiens, UniProt P08238); assay: as above; format: binding; settings: N-terminal domain, read-out: KDapp hHsp90βN
# T3 construct: N-terminal domain construct (Hsp90βN – residues 1–223); His-tag (cleaved yes); made in house; host or cells: Escherichia coli BL21(DE3)
# Procedure: as §1
# [8] = target: LbHsp90N; assay: as above; format: binding, L. braziliensis; settings: N-terminal domain, read-out: KDapp LbHsp90N
# Procedure: as §1
# [9] = target: T2, hHsp90β; assay: ATPase activity inhibition assay (EnzChek Pi quantification); format: biochemical; settings: 50 μM compound, 2 μM enzyme, 2.5 mM ATP
# Procedure: (§2) The ATPase activity of LbHsp90 and hHsp90β was evaluated spectrophotometrically through inorganic phosphate (Pi) quantification following ATP hydrolysis, by the EnzChek™ assay kit (Invitrogen®) as previous described[31]^,[34]. Briefly, a 2 µM solution of LbHsp90 and hHsp90β enzymes was prepared in 150 mM NaCl, 5 mM MgCl2 and 20 mM Tris-HCl, pH 7.5, and incubated with ATP (concentration range 0–5 mM) for 60 min at 37 °C. Then, the chromogenic substrate 2-amino-6-mercapto 7-methyl purine riboside (MESG) and the purine nucleoside phosphorylase (PNP) were added and the resulting reaction mixture was incubated for 30 min at 37 °C. The assays were performed in a 96-well plate and kinetic parameters determined by Michaelis–Menten fitting using GraphPad Prism 6 software.
# (§3) Initial screenings were performed using 50 μM compound concentration in a reaction mixture consisting of 2 μM enzyme and 2.5 mM ATP. After 1 h incubation at 37 °C, MESG and PNP were added. The amount of Pi was estimated after 30 min incubation at 37 °C. […] A compound concentration ranging from 1 to 75 μM was included in the reaction mixture and Pi quantification performed as previously described (measurements were performed in triplicate). IC50 values were determined by non-linear regression data fitting (using GraphPad Prism 6 software).
# [10] = target: T1, LbHsp90; assay: as above; format: biochemical
# Procedure: as §2
# as §3, with “The inhibitory activity against LbHsp90 and hHsp90β of compounds showing interaction in DSF assays (namely Glb08, Glb15, Gl23, Glb25 and Glb27) was determined using spectrophotometric ATPase activity assays as described above. Initial” for “Initial”, “°C. GA was used as reference compound, reporting 100% ATPase activity inhibition (at 50 μM).” for “°C.”
# [11] = target: T1, LbHsp90; parameters: method as in PMID 22910377; settings: measured by Tryptophan fluorescence quenching ref 31; read-out: KDapp LbHsp90; cited from earlier work
# [12] = target: LbHsp90N; parameters: method as in PMID 22910377; settings: measured by Tryptophan fluorescence quenching ref 31; read-out: KDapp LbHsp90N; cited from earlier work
# [13] = tested on: L. amazonensis; parameters: method as in PMID 31611575; settings: determined against L. amazonensis ref 36; read-out: IC50 (L. braziliensis column); cited from earlier work
# [14] = compound 1 to 75 μM, triplicate, read-out: IC50 LbHsp90 ATPase activity inhibition
# T2 sequence (P08238 whole entry): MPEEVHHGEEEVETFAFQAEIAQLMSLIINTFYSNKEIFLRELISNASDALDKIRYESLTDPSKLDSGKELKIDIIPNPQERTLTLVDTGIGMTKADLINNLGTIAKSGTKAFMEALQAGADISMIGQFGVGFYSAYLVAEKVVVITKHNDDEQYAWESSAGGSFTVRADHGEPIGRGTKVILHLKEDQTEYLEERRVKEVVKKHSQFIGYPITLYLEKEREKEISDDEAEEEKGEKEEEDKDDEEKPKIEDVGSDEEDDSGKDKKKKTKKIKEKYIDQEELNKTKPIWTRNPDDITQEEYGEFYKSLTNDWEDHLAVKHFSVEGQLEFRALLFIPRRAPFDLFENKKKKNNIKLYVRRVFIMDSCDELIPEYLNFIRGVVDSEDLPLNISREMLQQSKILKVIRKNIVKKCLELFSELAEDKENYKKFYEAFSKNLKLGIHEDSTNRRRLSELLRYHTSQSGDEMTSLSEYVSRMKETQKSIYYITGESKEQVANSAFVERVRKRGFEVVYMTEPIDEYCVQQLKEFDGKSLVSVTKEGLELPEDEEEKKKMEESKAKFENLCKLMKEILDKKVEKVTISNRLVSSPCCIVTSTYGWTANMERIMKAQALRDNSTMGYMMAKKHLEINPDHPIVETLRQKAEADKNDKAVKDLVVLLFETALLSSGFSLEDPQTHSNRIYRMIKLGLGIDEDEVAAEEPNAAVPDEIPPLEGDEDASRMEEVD
# T3 sequence (P08238 1-223): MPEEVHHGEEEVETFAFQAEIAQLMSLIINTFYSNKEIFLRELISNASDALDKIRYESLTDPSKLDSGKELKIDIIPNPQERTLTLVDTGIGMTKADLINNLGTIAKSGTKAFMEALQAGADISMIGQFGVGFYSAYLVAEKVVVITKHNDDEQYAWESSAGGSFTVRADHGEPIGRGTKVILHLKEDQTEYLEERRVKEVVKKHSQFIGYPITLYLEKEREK
# T1 sequence (A4HL70 entry or part of it): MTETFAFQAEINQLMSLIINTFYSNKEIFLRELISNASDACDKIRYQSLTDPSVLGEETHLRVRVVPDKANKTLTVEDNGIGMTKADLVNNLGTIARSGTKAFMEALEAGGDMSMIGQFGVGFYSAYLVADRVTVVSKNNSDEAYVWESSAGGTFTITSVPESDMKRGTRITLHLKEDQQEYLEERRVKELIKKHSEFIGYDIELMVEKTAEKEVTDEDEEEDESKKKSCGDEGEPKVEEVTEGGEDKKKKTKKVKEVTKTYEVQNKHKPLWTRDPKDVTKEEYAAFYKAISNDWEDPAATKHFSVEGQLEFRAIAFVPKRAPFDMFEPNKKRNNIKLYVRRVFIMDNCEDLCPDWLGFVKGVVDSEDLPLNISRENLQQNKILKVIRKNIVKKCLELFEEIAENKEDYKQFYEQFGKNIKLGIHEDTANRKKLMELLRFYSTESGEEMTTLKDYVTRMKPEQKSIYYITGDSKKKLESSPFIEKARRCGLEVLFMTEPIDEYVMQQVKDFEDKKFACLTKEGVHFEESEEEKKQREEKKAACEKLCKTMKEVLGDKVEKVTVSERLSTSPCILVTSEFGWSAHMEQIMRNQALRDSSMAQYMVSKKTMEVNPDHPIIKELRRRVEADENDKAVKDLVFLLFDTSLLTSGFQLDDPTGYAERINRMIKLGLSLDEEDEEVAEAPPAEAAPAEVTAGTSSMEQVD
structure (smiles),measurement,setting,value
Cc1cc(CSC(=N)N)c2oc(-c3ccccc3)cc(=O)c2c1 [Glb25],Thermal shift,[1],positive outcomes and Yes
same,Cell viability,[2],Yes
same,reduced cell viability,[2],more than 60%
same,IC50,[3],> 200 µM
same,IC50,[4],11 ± 1 µM
same,Kd,[5],7 ± 3 µM
same,Kd,[6],15 ± 9 µM
same,Kd,[7],14 ± 3 µM
same,Kd,[8],12 ± 2 µM
same,percentage inhibition of hHsp90β ATPase activity,[9],lower than 60%
N=C(N)Nc1nc(-c2ccccc2)c2ccccc2n1 [Glb08],Thermal shift,[1],positive outcomes and Yes
same,Cell viability,[2],Yes
same,reduced cell viability,[2],more than 60%
same,IC50,[3],43 ± 2 µM
same,IC50,[4],75 ± 3 µM
same,Kd,[5],13 ± 4 µM
same,Kd,[6],20 ± 5 µM
same,Kd,[7],29 ± 3 µM
same,Kd,[8],17 ± 6 µM
same,IC50,[10]; [14],30 ± 1 µM
same,percentage inhibition of hHsp90β ATPase activity,[9],lower than 60%
"COC1=C2C[C@@H](C)C[C@H](OC)[C@H](O)[C@@H](C)/C=C(\C)[C@H](OC(N)=O)[C@@H](OC)/C=C\C=C(/C)C(=O)NC(=CC1=O)C2=O [GA, geldanamycin, reference compound]",ΔTm,"[1]; 100 µM positive controls, protein stabilisation",> 2.0 °C
same,Cell viability,[2],Yes
same,IC50,[10],9 µM
same,inhibition at 50 µM,[10]; read-out: percentage inhibition of LbHsp90 ATPase activity,100%
same,percentage inhibition of hHsp90β ATPase activity,[9],fully inhibits enzyme activity
same,Kd,[11],7.6 ± 0.2 µM
same,Kd,[12],1.8 ± 0.3 µM
same,IC50,[13],0.19 µM
N=C(N)NN=Cc1cnn(Cc2ccccc2)c1 [Glb15],Thermal shift,[1],No
same,Cell viability,[2],Yes
same,reduced cell viability,[2],more than 60%
same,IC50,[3],71 ± 2 µM
same,IC50,[4],> 200 µM
same,Kd,[5],14 ± 4 µM
same,Kd,[6],14 ± 6 µM
same,Kd,[7],12 ± 3 µM
same,Kd,[8],13 ± 3 µM
same,IC50,[10]; [14],36 ± 1 µM
same,percentage inhibition of hHsp90β ATPase activity,[9],lower than 60%
